Assay results reported in patent publication US10259815B2, “Gabaergic ligands and their uses” (UWM Research Foundation, Inc., priority 2015, dated 2019).
Entries after “also recorded” stand apart in the source; their conditions may differ.

Key:
[1] = Liver microsomal stability, dog; format: in vitro ADME; conditions: for Dog Liver microsome stability (reported in % remaining): 37° C., 4 μM compound, 30 minutes
Experimental: (§1) In vitro metabolism studies were done in mouse, rat, human, and dogs cells (TABLE 2).
(§2) In vitro liver microsomal studies were completed to measure the stability of the compounds against degradation in various species' liver microsomes.
(§3) Compound was incubated in hepatic microsomes over a 30-minute incubation period at 37° C. Incubations both with and without NADPH (2 mM) were performed in a 96-well plate format. The reaction was initiated with the addition of substrate and was terminated by protein precipitation. All incubations were performed using a final substrate concentration of 4 μM in 50 mM sodium phosphate buffer, pH 7.4. The final organic solvent content was 0.5% acetonitrile and 0.02% DMSO. The amount of enzyme present was fixed at 1.11 mg/mL protein irrespective of the species of microsomes used. Samples were analyzed by LC/MS-MS to determine the percent loss in the NAPDH incubations relative to the NADPH free incubations.

[2] = Liver microsomal stability, human; format: in vitro ADME; conditions: for Human Liver microsome stability (reported in % remaining): 37° C., 4 μM compound, 30 minutes
Experimental: as §1, §2, §3

[3] = Liver microsomal stability, rat; format: in vitro ADME; conditions: for Rat Liver microsome stability (reported in % remaining): 37° C., 4 μM compound, 30 minutes
Experimental: as §1, §2, §3

[4] = biological target: CYP2C9 (Homo sapiens, UniProt P11712); assay: CYP substrate assessment, CYP2C9
[5] = biological target: CYP2D6 (Homo sapiens, UniProt P10635); assay: CYP substrate assessment, CYP2D6
[6] = test system: Male Sprague-Dawley rats; assay: Inverted screen test (muscle relaxation); format: in vivo
Experimental: (§4) Results were analyzed using ANOVA (Dunnett's test: *P<0.05).
The inverted screen test is used to measure whether or not a test compound induces muscle relaxation. When a test subject is placed on a wire screen which is then inverted, the reaction is to climb to the opposite side so they are no longer hanging upside down. If a compound promotes muscle relaxation, the test subjects will either fall off, or hang onto the screen without being able to climb to the opposite side.
Rats were placed onto the top of a wire screen, which was then inverted so that the rats were hanging upside down. […] Results were analyzed using ANOVA (Dunnett's test: *P<0.05).

[7] = biological target: CYP3A4 (Homo sapiens, UniProt P08684); assay: CYP substrate assessment, CYP3A4
[8] = Single-dose pharmacokinetics and brain concentrations, IV and IP, rats; format: in vivo, Sprague-Dawley rats
Experimental: The single-dose pharmacokinetics were determined in femoral artery/vein cannulated Sprague-Dawley rats. The rats received a 1 mg/kg intravenous and 10 mg/kg oral gavage dose of compound. Blood samples were collected at 0.08 (IV only), 0.25, 0.5, 1, 2, 4, 8, 12, and 24 hours after initiation of compound administration. Plasma was obtained via centrifugation. Plasma samples were then analyzed by LC-MS, and pharmacokinetic parameters calculated using Watson (version 7.4; Thermo Fisher Scientific). Calculated parameters include clearance (Cl), volume of distribution (Vdss), area-under-the-curve (AUC), half-life (T½), maximum plasma concentration (Cmax), time of maximum concentration (Tmax), and bioavailability (% F).
Male Sprague-Dawley rats were given either a 1 mg/kg […] dose or 10 mg/kg i.p. dose. Plasma concentrations were taken at 0.08, 0.25, 0.5, 1.0, 2, 4, 8, 12, and 24 hours (three rats per time point for each dose).

[9] = test system: Male Sprague-Dawley rats; assay: PTZ-induced seizure threshold; format: in vivo
Experimental: as §4
After a pretreatment of test compound, MET was intravenously administered to a test subject until a convulsions were observed.
Each animal was used only once and was euthanized post testing. Results were analyzed using ANOVA (Dunnett's test: *P<0.05).

[10] = test system: Male NIH Swiss mice; assay: Marble burying assay (anxiolytic); format: in vivo
Experimental: Male NIH Swiss mice (n=10) were dosed i.p. with vehicle (1% carboxymethyl cellulose) or one of the test compounds (10 or 30 mg/kg) 30 minutes prior to being tested in the marble burying assay.
The marble burying assay is designed to measure the anxiolytic-effect of a compound. When mice are nervous, they will bury marbles. As there becomes a decrease in amount of marbles buried, the better anxiolytic effect of a compound.
The marble burying assay is used to determine the anxiolytic activity of a given compound. Mice are placed in a tub containing 20 marbles placed over a bed of sawdust. Defensive burying (Broekkamp 1986) is the natural reaction for the mice. When given an anxiolytic, such as diazepam, the mice are less likely to defensively bury the marbles.
Experiments were carried out by the methods described in Li et al. (Life Sciences 2006, 78, 1933-1939). Separate groups of mice were used in these experiments and were conducted in a dimly lit testing room. After 60 min acclimation to the experimental room, mice were placed in a 17×28×12 cm high plastic tub with […] sawdust shavings (Harlan Sani-Chips, Harlan-Teklad, Indianapolis, Ind., USA) on the floor, which was covered with 20 blue marbles (1.5 cm diameter) placed in the center. […] The number of marbles buried (⅔ covered with sawdust) was counted and submitted to inter-observer reliability assessment.

[11] = Pharmacokinetics and brain concentration after 10 mg/kg P.O. dose, rats; format: in vivo
Experimental: In a 10 mg/kg oral dose in rats, a concentration of 644 ng/g of KRM-II-81 was found unbound in the brain, indicating a great pharmacokinetic-profile.
Although these are different species, the numbers can still be compared.

[12] = test system: Male Sprague-Dawley rats; assay: scMET-induced seizure protection, rats; format: in vivo; conditions: i.p. 30 minutes prior; pentylenetetrazole 35 mg/kg
Experimental: A 35 mg/kg subcutaneous dose of pentylenetetrazole was given and the percent outcome of seizure was recorded. Results were analyzed using ANOVA (Dunnett's test: *P<0.05).
Test subjects were given a test compound, followed by a 35 mg/kg dose of MET and observed for convulsions (FIG. 7).
as §4

Chain of CYP3A4 (P08684 whole entry): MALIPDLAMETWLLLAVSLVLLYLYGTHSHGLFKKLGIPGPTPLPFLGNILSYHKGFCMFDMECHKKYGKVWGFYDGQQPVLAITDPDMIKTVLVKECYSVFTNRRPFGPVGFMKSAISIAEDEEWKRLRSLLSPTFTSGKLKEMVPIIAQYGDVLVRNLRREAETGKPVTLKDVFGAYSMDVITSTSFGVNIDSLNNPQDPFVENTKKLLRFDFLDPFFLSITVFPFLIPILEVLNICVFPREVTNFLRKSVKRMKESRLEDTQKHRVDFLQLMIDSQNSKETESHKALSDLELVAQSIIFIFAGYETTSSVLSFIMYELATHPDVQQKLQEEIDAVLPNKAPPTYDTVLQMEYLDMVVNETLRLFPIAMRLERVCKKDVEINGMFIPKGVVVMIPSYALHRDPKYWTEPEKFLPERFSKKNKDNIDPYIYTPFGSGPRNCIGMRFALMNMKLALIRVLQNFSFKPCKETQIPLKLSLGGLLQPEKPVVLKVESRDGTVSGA
Chain of CYP2C9 (P11712 whole entry): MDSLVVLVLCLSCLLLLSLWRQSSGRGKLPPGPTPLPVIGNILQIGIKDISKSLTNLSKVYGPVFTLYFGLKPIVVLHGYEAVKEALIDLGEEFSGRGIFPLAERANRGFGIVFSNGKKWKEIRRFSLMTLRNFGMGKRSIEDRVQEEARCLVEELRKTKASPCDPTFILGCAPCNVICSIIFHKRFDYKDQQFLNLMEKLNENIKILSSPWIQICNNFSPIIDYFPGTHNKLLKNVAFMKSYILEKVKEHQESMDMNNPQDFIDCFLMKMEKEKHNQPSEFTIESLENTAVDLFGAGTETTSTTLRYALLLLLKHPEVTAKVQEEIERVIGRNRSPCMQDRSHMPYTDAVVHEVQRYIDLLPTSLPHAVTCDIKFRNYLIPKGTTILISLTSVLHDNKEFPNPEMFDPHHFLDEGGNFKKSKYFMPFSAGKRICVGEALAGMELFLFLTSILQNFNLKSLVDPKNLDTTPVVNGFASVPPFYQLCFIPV
Chain of CYP2D6 (P10635 whole entry): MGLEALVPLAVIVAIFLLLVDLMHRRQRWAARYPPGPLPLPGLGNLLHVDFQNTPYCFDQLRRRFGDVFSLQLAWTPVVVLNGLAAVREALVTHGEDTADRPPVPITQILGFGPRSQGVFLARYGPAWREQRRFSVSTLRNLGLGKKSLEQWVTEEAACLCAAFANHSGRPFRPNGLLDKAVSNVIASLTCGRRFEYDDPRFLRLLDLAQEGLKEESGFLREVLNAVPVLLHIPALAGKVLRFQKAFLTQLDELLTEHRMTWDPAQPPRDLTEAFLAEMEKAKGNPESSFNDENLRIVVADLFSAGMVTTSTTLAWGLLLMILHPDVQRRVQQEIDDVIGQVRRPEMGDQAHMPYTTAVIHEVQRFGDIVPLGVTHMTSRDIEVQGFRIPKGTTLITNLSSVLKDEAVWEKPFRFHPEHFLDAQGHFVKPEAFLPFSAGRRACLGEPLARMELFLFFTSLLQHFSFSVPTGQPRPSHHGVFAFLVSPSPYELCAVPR

With C#Cc1ccc2c(c1)C(c1ccccc1F)=NCc1c(-c3cnco3)ncn1-2 [KRM-II-18B, 5-(8-Ethynyl-6-(2-fluorophenyl)-4H-benzo[f]imidazo[1,5-a][1,4]diazepin-3-yl)oxazole] the “Dog Liver microsome stability (reported in % remaining)” value [1] was 87 % remaining, the “Human Liver microsome stability (reported in % remaining)” value [2] was 78 % remaining and the “Rat Liver microsome stability (reported in % remaining)” value [3] was 68 % remaining.

In the case of C#Cc1ccc2c(c1)C(c1ccccn1)=NCc1c(-c3cnco3)ncn1-2 [KRM-II-81, 5-(8-Ethynyl-6-(pyridin-2-yl)-4H-benzo[f]imidazo[1,5-a][1,4]diazepin-3-yl)oxazole], the “substrate of CYP2C9” value [4] is reported as “not found to be a substrate”, the “substrate of CYP2D6” value [5] is reported as “not found to be a substrate” and the “Dog Liver microsome stability (reported in % remaining)” value [1] is reported as 94 % remaining. For the same compound, the “Dog % Metabolized” value ([1]; in vitro metabolism, dog) was 5.9%, the “muscle relaxation / motor impairment in inverted screen” value ([6]; i.p. 30 minutes prior, diazepam 3, 10, 30 mg/kg, KRM-II-81 10, 30, 60 mg/kg, HZ-166 30 mg/kg) was “Neither HZ-166 nor KRM-II-81 induced significant muscle relaxation” and the “dose at which signs of muscle relaxation began to appear” value ([6]; i.p., inverted screen) was 60 mg/kg. The “substrate of CYP3A4” value [7] was “not found to be a substrate”, the “Human Liver microsome stability (reported in % remaining)” value [2] was 91 % remaining and the “Human % Metabolized” value ([2]; in vitro metabolism, human) was 8.6%. The mean clearance ([8]; 1 mg/kg IV dose in rat) was 21.7 mL/min/kg, the “mean AUC” value ([8]; 10 mg/kg IP dose in rat) was 16.5 µM·h and the “mean IP T ½” value ([8]; 10 mg/kg IP dose in rat) was 3.1 h. For the same compound, the mean bioavailability ([8]; 10 mg/kg IP dose in rat) was 69%, the Cmax ([8]; 10 mg/kg IP dose in rat, plasma) was 3.09 µM and the half-life ([8]; Sprague-Dawley, plasma, 1 mg/kg IV dose in rat, read-out: mean T ½ (converted)) was 1.4 h. The Vd ([8]; Sprague-Dawley, plasma, 1 mg/kg IV dose in rat, read-out: mean Vdss) was 1.4 L/kg, the concentration at 1 h ([8]; male, Sprague-Dawley, rat, brain, intraperitoneal, 10 mg/kg IP dose, 1 hour) was 6.63 µM and the concentration at 4 h ([8]; male, Sprague-Dawley, rat, brain, intraperitoneal, 10 mg/kg IP dose, 4 hour) was 2.05 µM. For the same compound, the Kp uu at 1 h ([8]; male, Sprague-Dawley, rat, brain/plasma (unbound), 10 mg/kg IP dose, 1 hour) was 0.53, the Kp uu at 4 h ([8]; male, Sprague-Dawley, rat, brain/plasma (unbound), 10 mg/kg IP dose, 4 hour) was 0.67 and the “dose of MET required for convulsion” value ([9]; pretreated with 10 mg/kg i.p., PTZ infused i.v.) was 71 mg/kg. For the same compound, the “effect on seizure threshold to PTZ” value ([9]; test compound 3 to 60 mg/kg, diazepam 0.1 to 1 mg/kg i.p.) was “significantly increased the seizure threshold to PTZ; also recorded: larger maximal effect”, the “sedation observed in marble burying assay” value ([10]; 10 and 30 mg/kg i.p.) was “without observed signs of sedation” and the “anxiolytic activity in marble burying assay” value ([10]; mouse, in vivo) was “better anxiolytic than HZ-166; also recorded: good activity in the marble burying”. The “Rat Liver microsome stability (reported in % remaining)” value [3] was 90 % remaining, the “Rat % Metabolized” value ([3]; in vitro metabolism, rat) was 9.6% and the “concentration in the blood relative to HZ-166” value ([11]; Cmax, 10 mg/kg P.O., KRM-II-81 in rats vs HZ-166 in mice) was ~500 times. The Tmax ([11]; rat, blood, po, 10 mg/kg P.O., rats) was 1.3 h, the Cmax ([11]; rat, blood, po, 10 mg/kg P.O., rats, read-out: Cmax (highest concentration found in blood)) was 1750 ng/mL and the concentration at 1 h ([11]; rat, brain (unbound), 10 mg/kg oral dose, one hour after dose, rats stated for KRM-II-81, read-out: brain unbound concentration ([brain]u)) was 644 ng/g. For the same compound, the fraction unbound ([11]; rat, 10 mg/kg oral dose, brain, read-out: free fraction) was 0.18 and the “dose achieving significant protection against scMET seizures” value [12] was 30 mg/kg.
